pIC50: −log10 of the molar value. Read-outs that look alike come from different tables or passages of the source. One block for each compound: values may come before it. Ends that are not written are not given here.
Legend:
human platelets = assay type: cell-based
Description: The cytoplasmic free Ca^2+ concentration ([Ca^2+ ]i) was measured using the fluorescent Ca^2 + indicator fura-2 (Molecular Probes, Inc., Eugene, Oreg.). Gel filtered platelets in Hepes-Tyrode's buffer were loaded with fura-2 by incubation at 37° C. with 1 μM fura-2/acetoxymethyl ester for 45 min according to the method of Rasmussen et al., J. Biol. Chem. 268, 14322 (1993). The labeled platelets were then re-gel filtered to remove any excess probe. Aliquots of the labeled platelet suspension were transferred into a quartz cuvette with a magnetic stirrer, which was then placed in a thermostatically controlled chamber at 37° C. in a fluorescence spectrophotometer (Dual Wave Length Shimazdu SP5000 Spectrofluorometer, Shimazdu USA, Pittsburgh, Pa.). Reagents were directly added to the cuvette. The excitation wave lengths varied between 340 and 380 nm. The fluorescence was measured by recording emitted light at 510 nm as reported by Fisher et al, Mol. Pharm. 35, 195 (1989). The minimum emission was determined on a 20 mM digitonin, 10 mM EGTA solubilized platelet sample; maximum emission was determined on the same sample with 10 mM Ca^2+ added. The intraplatelet free Ca^2+ concentration was calculated by the method of Grykiewicz et al., J. Biol. Chem. 260, 3440 (1985). The ratio of the fluorescence readings was calculated as R=340/380 nm and processed according to the equation [Ca^2+ ]i =KD ((R-Rmin)/Rmax -R))(Sf2 /Sb2) to determine the intraplatelet free Ca^2+ concentration. The KD for fura-2 was assumed to be 224 nM. Rmax and Rmin are the maximum and minimum fluorescence ratios measured at the end of the experiment, respectively; Sf2 and Sb2 are the fluorescence values at 380 nm in the absence and presence of saturating [Ca^2+ ], respectively.

washed platelets = experiment: 125I-α-thrombin binding to platelets; parameters: species or system human; conditions: peptide 1 mM
Description: Gel filtered platelets were placed into polypropylene tubes and diluted with Hepes-Tyrode's buffer, containing 2 mM CaCl2 and 50 μM ZnCl2 and additions, to a final concentration of 2×10^8 platelets/ml. The reaction was started by the addition of 1 nM ^125 I-α-thrombin, which was prepared by using the iodogen technique as reported by Meloni et al., J. Biol. Chem. 266, 6786 (1991). Incubations were performed at 37° C. for specified times with various additions. After incubation, 50 μl aliquots were removed in triplicate for each experimental point and placed in polypropylene microcentrifuge tubes with an extended tip containing 200 μl of an oil mixture which consisted of 1 part Apiezon A oil to 9 parts of n-butylphthalate (Gustafson et al., J. Clin. Invest. 78, 810 (1986)), and centrifuged at room temperature for 2 min at 10,900× g in a microcentrifuge. (Model E, Beckman Instruments, Palo Alto, Calif.) The supernatant was removed and the tips amputated for placement in the gamma counter. The radioactivity present in the cell pellet was determined with an LKB Rack Gamma Counter (LKB Instruments, Inc., Gaithersburg, Md.). Nonspecific binding was measured in the presence of a 100-fold molar excess of α-thrombin.

platelets = assay type: cell-based, human; conditions: for inhibition of aggregation / inhibition of secretion: peptide 1 mM
Description: Fresh whole blood was collected and mixed with 0.013 M sodium citrate and platelet-rich plasma was prepared according to the method of Meloni et al., J. Biol. Chem. 266, 6786, 1991. Washed platelets were prepared by gel filtration over Sepharose 2B columns in Hepes-Tyrode's buffer (0.137 M NaCl, 3 mM KCl, 0.4 mM Na H2 PO4, 12 mM NaHCO3, 1 mM MgCl2, 14.7 mM Hepes containing 20 mM glucose and 0.2% bovine serum albumin, pH 7.35). Platelets for aggregation and secretion studies were incubated according to the method of Schmaier et al., Blood 56, 1013, 1980 with 5-[^14 C]hydroxytryptamine for 30 min at 37° C. The washed platelets (2×10^8 /ml, final concentration radiolabeled with 5-[^14 C]hydroxytryptamine) were added to a cuvette of an aggregometer (Chronolog Corp., Havertown, Pa.), standardized using the protocol of Meloni et al., supra. After the addition of ZnCl2, final concentration 50 μM, purified HK (1 μM) or various concentrations of the peptides (0.1 to 3 mM) or buffer alone was added to the cuvette. Once the baseline stabilized, α-thrombin [0.125 U/ml (1 nM) final concentration] was then added to initiate platelet activation. Stirred platelets were allowed to incubate with o-thrombin and additions for 1 min. In other experiments, platelets were stimulated with TRAP (0.625 to 2.5 μM), ADP (1-5 μM)(Sigma), collagen (1.25 μg/ml) (Horm, Munich, Germany), or U-46619 (1 μM)(Calbiochem Behring, San Diego, Calif.). Additional experiments were performed with washed platelets stimulated with γ-thrombin (1 nM) in the presence of human fibrinogen (100 mg/dl). Both γ-thrombin and human fibrinogen were purchased from Enzyme Research Laboratories, South Bend, Ind. At the conclusion of the incubation, the entire platelet sample was centrifuged at 10,900 xg (Model E, Beckman Instruments, Palo Alto, Calif.) over a 0.135 mM formaldehyde, 5 mM EDTA solution (1 part of formaldehyde-EDTA to 4 parts of platelet suspension) and stored on ice until an aliquot of the supernatant was assayed for 5-[^14 C]hydroxytryptamine secretion. Percent secretion was determined by the ratio of the loss of 5-[^14 C]hydroxytryptamine in the supernatant of the agonist-treated specimen to the loss of 5-[^14 C]hydroxytryptamine in the supernatant of the platelet lysate after the value of the control supernatant (i.e., the level of 5-[^14 C]hydroxytryptamine in a unstimulated sample) was subtracted from both.

α-thrombin = α-thrombin (Homo sapiens, UniProt P00734); experiment: α-thrombin cleavage of thrombin receptor peptide NAT12 (HPLC); assay type: biochemical; conditions: peptide 1 mM, 8 nM α-thrombin
Description: A further study was performed to determine whether BK analogs prevent α-thrombin from cleaving the thrombin receptor reported by Vu et al., Cell 64, 1057 (1991). A peptide, NAT12 (SEQ ID NO:2), which spans amino acids […] of the α-thrombin cleavage site on the thrombin receptor, was used to determine whether the BK analogs described herein blocked α-thrombin cleavage of the cloned receptor.
The cleavage study was performed according to the method of Molino et al., J. Biol. Chem. 270,11168(1995),inwhichNAT12(SEQ ID NO:2) was dissolved in a solution of 0.01 M NaH2 PO4 and 0.15 M NaCl, pH 7.4. […] Following incubation, each mixture was separated by applying the mixture to a Vyadec C-18 HPLC column in 0.1% trifluoroacetic acid and eluting the mixture with a gradient from 0% to 100% of 80% MeCN and 0.1% trifluoroacetic acid. The size of the separated products were confirmed by mass spectrometry.

[1] = rabbit clearance study (plasma antigen by ELISA); assay type: in vivo, New Zealand white rabbits
Description: (§1) Clearance studies have been performed in New Zealand white rabbits with BK analog SEQ ID NO:19. White rabbits weighing between 2.0 and 2.5 kg were premedicated according to the method of Michelson et al., J. Mol. Cell Cardiol. 20, 547 (1988) with 10 mg/kg 1 M xylazine and 10 mg/kg 1 M ketamine. After tracheostomy, intubation, and positive pressure ventilation done with room air (Harvard instruments), stage III surgical anesthesia was maintained with 20 mg/ml of intravenous pentobarbital. A carotid artery and a jugular vein were then exposed. A catheter was inserted into the exposed carotid artery for withdrawal of blood samples and monitoring the animal's blood pressure (Gould, Inc., Cardiovascular Products, Oxnard, Calif.). In a similar manner, a catheter was inserted into the exposed jugular vein for administering the anesthetic and BK analog SEQ ID NO:19.
(§2) For the clearance study, a single bolus of BK analog SEQ ID NO:19 was injected. The amount of BK analog SEQ ID NO:19 injected was calculated from the weight of the animal such that the blood volume was 1 mM with peptide. For example: for a 2.5 kg rabbit, 7% of its weight gives an estimated blood volume of 175 ml. Accordingly, 89 mg of BK analog was injected to make the 175 ml plasma sample 1 mM. Depending upon the size of the animal, 75 to 90 mg peptide was injected. Blood samples were collected at 2, 4, 6, 8, 10, 20, 30, 40, 60, 90, and 120 minute intervals after infusion into a 0.013 M sodium citrate anticoagulant solution. Plasma was prepared from each of the blood samples collected over time by centrifugation of the blood samples at 10,00 xg for two minutes. Aliquots of the plasmas were assayed for the presence of the BK analog SEQ ID NO:19 antigen by the ELISA technique using a MARKIT-M [1-5] BK assay from Dainippon Pharmaceutical Co., Ltd., Osaka, Japan.

[2] = observations in rabbits after bolus injection; assay type: in vivo, New Zealand white rabbits; conditions: single iv bolus
Description: as §1, §2

[3] = washed platelets, α-thrombin 1 nM, read-out: IC50 AGGREGATION (inhibition of α-thrombin-induced platelet aggregation)
[4] = washed platelets, α-thrombin 1 nM, read-out: IC50 SECRETION (inhibition of α-thrombin-induced platelet secretion)
[5] = aggregation and secretion not distinguished, read-out: IC50, inhibition of α-thrombin-induced platelet activation

- pIC50 (human platelets): 3.52
Compound: CC[C@H](C)[C@H](NC(=O)[C@H](CCCNC(=N)N)NC(=O)[C@H](CO)NC(=O)[C@H](CO)NC(=O)[C@H](CCCNC(=N)N)NC(=O)[C@H](Cc1ccccc1)NC(=O)[C@@H]1CCCN1C(=O)[C@H](CO)NC(=O)[C@H](Cc1ccccc1)NC(=O)CNC(=O)[C@@H]1CCCN1C(=O)[C@@H]1CCCN1C(=O)[C@H](CCCNC(=N)N)NC(=O)[C@H](CCCCN)NC(=O)[C@@H](N)CCSC)C(=O)NCC(=O)O [SEQ ID NO:14]

- pIC50 (platelets; [3]): 3.07
- pIC50 (platelets; [4]): < 2.70
Compound: SEQ ID NO:8: BK analog that encompasses all or a portion of the native BK sequence (GFSPFRSSRIG)
- inhibition of 125I-α-thrombin binding to platelets (washed platelets): did not block

Compound: SEQ ID NO:5: scrambled peptide having the amino acids of SEQ ID NO:19 (FPRPG) [reference compound]
- inhibition of aggregation (platelets): did not inhibit
- inhibition of secretion (platelets): did not inhibit

Compound: RPPGF [SEQ ID NO:19, Arg-Pro-Pro-Gly-Phe]
- cleavage product peak 2, share of non-treated NAT12 peak area (α-thrombin): 26%
- cleavage product peak 3, share of non-treated NAT12 peak area (α-thrombin): 31%
- reduction of NAT12 peak 1 area after α-thrombin (α-thrombin; one hour 37° C.): 57%
- effect of ligating renal arteries on half-life ([1]; Rabbit 2, renal arteries ligated): did not lengthen the half-life
- half-life of antigen clearance in plasma ([1]; single iv bolus): 6.6 min
- peak plasma concentration after infusion ([1]; single iv bolus, two minutes after infusion): 0.120 mM
- peak plasma concentration after infusion ([1]; single iv bolus, two of three rabbits, ELISA): 60 µg/mL
- bleeding at the surgical sites of cutdowns and intubations [2]: no abnormal bleeding
- blood pressure [2]: remained stable
- platelet count [2]: remained stable
- pulse [2]: remained stable
- unfavorable effects following the bolus injection [2]: No unfavorable effects were observed

- pIC50 (platelets; [5]): ≤ 2.70
- pIC50 (platelets; [3]): 2.70
- pIC50 (platelets; [4]): < 2.70
Compound: SEQ ID NO:7: BK analog of the mid or carboxy terminal regions of BK (FSPFRSS)

Compound: SEQ ID NO:6: scrambled peptide having the same amino acid count as SEQ ID NO: 14 (FSGPKRSPIMGRPSFR) [reference compound]
- inhibition of aggregation (platelets): 26%
- inhibition of secretion (platelets): 8%

Compound: SEQ ID NO:9: scrambled peptide having the amino acids of SEQ ID NO:19 (GPFPR) [reference compound]
- inhibition of aggregation (platelets): did not inhibit
- inhibition of secretion (platelets): did not inhibit

- pIC50 (platelets; [5]): ≤ 2.70
- pIC50 (platelets; [3]): < 2.52
- pIC50 (platelets; [4]): < 2.70
Compound: SEQ ID NO:16: BK analog of the mid or carboxy terminal regions of BK (PPGFSP)

Compound: Arg-Pro-Pro-Gly (RPPG) [SEQ ID NO:20]
- inhibition of aggregation (platelets): 95%
- inhibition of secretion (platelets): 25%
